# Assay results reported in patent US11083724B2, “Rimegepant for CGRP related disorders” (Biohaven Pharmaceutical Holding Company Ltd., priority 2018, dated 2021).
# Tested on: subjects with Acute Migraines
# Experiment: Study 302 (BHV3000-302, NCT03237845): Phase 3 double-blind placebo-controlled trial, rimegepant 75 mg tablet, acute treatment of migraine
# Format: in vivo, human
# Settings: for Percent (%) difference of Patients Pain Free: Rimegepant versus Placebo: no rescue meds, Kaplan-Meier estimates; for Freedom from MBS at 2 hours / Pain Freedom (pain-free) at 2 hours: N = 537
# Procedure: Clinical Trial—BHV3000-302: Phase 3: Double-Blind, Randomized, Placebo-Controlled, Safety and Efficacy Trial of BHV-3000 (Rimegepant) for the Acute Treatment of Migraine (ClinicalTrials.gov Identifier: NCT03237845) A phase 3 clinical study was conducted with 1503 participants, as follows. The purpose of this study is to compare the efficacy of BHV-3000 (rimegepant) versus placebo in subjects with Acute Migraines Study Design • Study Type: Interventional (Clinical Trial) • Actual Enrollment: 1503 participants • Allocation: Randomized • Intervention Model: Parallel Assignment • Intervention Model Description: Double-blind to Sponsor, Investigator and Subject • Masking: Triple (Participant, Care Provider, Investigator) • Masking Description: Double-blind to Sponsor, Investigator and Subject • Primary Purpose: Treatment • Official Title: BHV3000-302: Phase 3: Double-Blind, Randomized, Placebo-Controlled, Safety and Efficacy Trial of BHV-3000 (Rimegepant) for the Acute Treatment of Migraine • Actual Study Start Date: Jul. 26, 2017 • Primary Completion Date: Jan. 25, 2018 • Study Completion Date: Jan. 31, 2018 Arms and Interventions Outcome Measures Primary Outcome Measures: • 1. Pain Freedom of rimegepant (75 mg tablet) compared with placebo in the acute treatment of migraine will be measured using the number of evaluable subjects that report no pain at 2 hours post-dose. [Time Frame: Two hours post dose] • Pain will be measured on a 4 point Likert scale (0=none, 1=mild, 2=moderate, 3=severe) • 2. Freedom from the most bothersome symptom (MBS) of rimegepant (75 mg tablet) compared with placebo will be measured using the number of evaluable subjects that report the absence of their MBS at 2 hours post-dose. [Time Frame: Two hours post dose] • The MBS (nausea, phonophobia or photophobia) will measured using a binary scale (0=absent, 1=present). Secondary Outcome Measures: • 1. […] [Time Frame: 2 hours-24 hours post-dose] • Sustained Pain Freedom as measured by a 4 point numeric rating scale (None, Mild, Moderate, Severe) • 2. Rimegepant (75 mg tablet) compared to placebo by tabulating the number of subjects that report the absence of photophobia at 2 hours post-dose in the subset of subjects that reported the presence of photophobia at headache baseline. [Time Frame: 2 hours post-dose] • Freedom from Photophobia • 3. Rimegepant (75 mg tablet) compared to placebo by tabulating the number of subjects that report the absence of phonophobia at 2 hours post-dose in the subset of subjects that reported the presence of phonophobia at headache baseline. [Time Frame: 2 hours post-dose] • Freedom from Phonophobia • 4. To measure rimegepant (75 mg tablet) compared to placebo on Pain Relief, at 2 hours post-dose, that report a pain level of moderate or severe at baseline and then report a pain level of none or mild. [Time Frame: 2 hours post-dose] • Pain Relief as measured by a 4 point numeric rating scale (None, Mild, Moderate, Severe) • 5. Freedom from Nausea will by tabulating the number of subjects that report the absence of nausea at 2 hours post-dose in the subset of subjects that reported the presence of nausea at headache baseline. [Time Frame: 2 hours post-dose] • Freedom from Nausea • 6. To measure rimegepant (75 mg tablet) compared to placebo on the probability of requiring rescue medication will be assessed using the number of subjects that take rescue medication within […] administration of study medication (BHV3000 or placebo). [Time Frame: up to 24 hours post-dose] • Requiring Rescue Medication • 7. […] [Time Frame: 2 hours-48 hours post-dose] • Sustained Pain Freedom as measured by a 4 point numeric rating scale (None, Mild, Moderate, Severe) • 8. […] [Time Frame: 2 hours-24 hours post-dose] • Sustained Pain Relief as measured by a 4 point numeric rating scale (None, Mild, Moderate, Severe) • 9. […] [Time Frame: 2 hours-48 hours post-dose] • Sustained Pain Relief as measured by a 4 point numeric rating scale (None, Mild, Moderate, Severe) • 10. […]
# [1] = Study 302, single 75 mg tablet, listed as rimegepant
compound,measurement,setting,value
"N[C@@H]1c2cccnc2[C@H](OC(=O)N2CCC(n3c(=O)[nH]c4ncccc43)CC2)CC[C@H]1c1cccc(F)c1F [Rimegepant, [(5S,6S,9R)-5-amino-6-(2,3-difluorophenyl)-6,7,8,9-tetrahydro-5H-cyclohepta[b]pyridin-9-yl] 4-(2-oxo-3H-imidazo[4,5-b]pyridin-1-yl)piperidine-1-carboxylate]",SAEs related to the study drug,Study 302,No SAEs
same,bilirubin elevations greater than 2 times ULN,Study 302,no bilirubin elevations
same,transaminase level greater than 3 times ULN,Study 302,No subject
same,AE urinary tract infection,"Study 302, 8/543",1.5%
same,AE nausea,"Study 302, 10/543",1.8%
same,Serum ALT or AST levels greater than ULN,"Study 302, 13/543",2.4%
same,Percent (%) difference of Patients Pain Free: Rimegepant versus Placebo,"Study 302, 2 hours post single dose 75 mg",7%
same,Percent (%) difference of Patients Pain Free: Rimegepant versus Placebo,"Study 302, 3 hours post single dose 75 mg",13%
same,Percent (%) difference of Patients Pain Free: Rimegepant versus Placebo,"Study 302, 4 hours post single dose 75 mg",19%
same,Percent (%) difference of Patients Pain Free: Rimegepant versus Placebo,"Study 302, 6 hours post single dose 75 mg",22%
same,Percent (%) difference of Patients Pain Free: Rimegepant versus Placebo,"Study 302, 8 hours post single dose 75 mg",19%
same,functional disability: patients achieving normal function at 2 hours versus placebo,"Study 302, P<0.0001",greater proportion
same,"Serious AEs (SAEs), subjects","Study 302, back pain",1 subject
same,"Free from MBS at 2 hours, subjects [n/N]","Study 302, single 75 mg tablet",[202/537]
same,Nausea-free at 2 hours,"Study 302, single 75 mg tablet",48.1%
same,"Nausea-free at 2 hours, subjects [n/N]","Study 302, single 75 mg tablet",[171/355]
same,Pain relief at 2 hours,"Study 302, single 75 mg tablet",58.1%
same,"Pain relief at 2 hours, subjects [n/N]","Study 302, single 75 mg tablet",[312/537]
same,"Pain-free at 2 hours, subjects [n/N]","Study 302, single 75 mg tablet",[105/537]
same,Phonophobia-free at 2 hours,"Study 302, single 75 mg tablet",36.7%
same,"Phonophobia-free at 2 hours, subjects [n/N]","Study 302, single 75 mg tablet",[133/362]
same,Photophobia-free at 2 hours,"Study 302, single 75 mg tablet",37.4%
same,"Photophobia-free at 2 hours, subjects [n/N]","Study 302, single 75 mg tablet",[183/489]
same,"Sustained pain relief, 2-24 hours","Study 302, single 75 mg tablet",42.6%
same,"Sustained pain relief, 2-24 hours, subjects [n/N]","Study 302, single 75 mg tablet",[229/537]
same,Freedom from MBS at 2 hours,"Study 302, single 75 mg tablet",37.6%
same,Pain Freedom (pain-free) at 2 hours,"Study 302, single 75 mg tablet",19.6%
same,Freedom from MBS at 2 hours,[1],37.6%
same,Pain Freedom (pain-free) at 2 hours,[1],19.6%
same,Pain relief at 2 hours,[1],58.1%
same,sustained pain relief from 2 through 48 hours postdose versus placebo,"Study 302, single dose, no rescue medication, P<0.0001",superiority versus placebo
same,sustained pain freedom from 2 through 48 hours postdose versus placebo,"Study 302, single dose, no rescue medication, P=0.0181",superiority versus placebo
